Experimental data reported in patent US11312718B2, “Formulations of (S)-3-(1-(9H-purin-6-ylamino)ethyl)-8-chloro-2-phenylisoquinolin-1(2H)-one” (Infinity Pharmaceuticals, Inc., priority 2011, dated 2022).
Like-named read-outs stand apart in the source and are kept apart here.

Legend:
[1] = Dynamic vapor sorption (DVS) / moisture sorption analysis; format: physicochemical; conditions: for Moisture Sorption (wt % water): listed as Free Form A; for hygroscopicity / moisture uptake at 60% RH / moisture uptake at 90% RH: DVS; for moisture uptake at 60% RH / moisture uptake at 90% RH: about 25° C.
Method: Compounds and polymorphs provided herein can be characterized by moisture sorption analysis. This analysis was performed using a Hiden IGAsorp Moisture Sorption instrument. Moisture sorption experiments were carried out at about 25° C. by performing an adsorption scan from about 40% to about 90% RH in steps of about 10% RH and a desorption scan from about […] to about 0% RH in steps of about −10% RH. A second adsorption scan from about 10% to about 40% RH was performed to determine the moisture uptake from a drying state to the starting humidity. Samples were allowed to equilibrate for about four hours at each point or until an asymptotic weight was reached. After the isothermal sorption scan, samples were dried for about one hour at elevated temperature (about 60° C.) to obtain the dry weight. XRPD analysis on the material following moisture sorption was performed to determine the solid form.
Dynamic vapor sorption (DVS) analysis was performed on polymorph Forms A, B, C, D, and E using the DVS instrument and parameters as described above. […] Hysteresis indicative of hemi-hydrate formation was observed.

[2] = Hold in humidity chambers at 9% RH and 95% RH; format: physicochemical; conditions: after 1 week
[3] = Grinding stability (mortar and pestle); format: physicochemical; conditions: for Grinding (mortar & pestle): by hand, 2 and 5 min, XRPD
Method: Forms A, C, D, and E were subjected to grinding experiments performed using a mortar and pestle by hand. Samples were lightly grounded for 2 minutes then analyzed by XRPD. Material was then returned to the mortar and pestle and grounded for an additional 3 minutes, for a total of 5 minutes of grinding, and re-analyzed by XRPD.

[4] = Solubility of polymorph Forms (H2O, SGF); format: physicochemical
[5] = Salt screen: solubility in water; format: physicochemical; conditions: listed as Free Form A
Description: Salts of a compound of Formula (I) were formed with L-tartaric acid, p-toluenesulfonic acid, D-glucaronic acid, ethane-1,2-disulfonic acid (EDSA), 2-naphthalenesulfonic acid (NSA), hydrochloric acid (HCl) (mono and bis), hydrobromic acid (HBr), citric acid, naphthalene-1,5-disulfonic acid (NDSA), DL-mandelic acid, fumaric acid, sulfuric acid, maleic acid, methanesulfonic acid (MSA), benzenesulfonic acid (BSA), ethanesulfonic acid (ESA), L-malic acid, phosphoric acid, and aminoethanesulfonic acid (taurine).

[6] = Stability studies of packaged polymorph Forms (temperature and humidity storage); format: physicochemical; conditions: Double LDPE bags in fiberboard drum; 40° C. ± 2° C./75% RH ± 5% RH; 1, 2, 3, 6, and 12 months; HPLC, Karl Fischer, XRPD
Description: Polymorphs Form A and Form C were subjected to stability studies where several samples of each given Form were packaged and subjected to the given temperature and humidity conditions as described in Table 10. At each timepoint, a sample for that study was opened and evaluated by HPLC for purity, Karl Fischer for moisture content, and XRPD for confirming the polymorph Form.

[7] = Drying of Form A at 70° C.; format: physicochemical; conditions: Drying at 70° C. for six days
Method: 1. Procedure from CH2Cl2 and from IPA: Form C (1 g) was slurried in five volumes of dichloromethane. After holding for 15 hours, filtration, and drying, Form A was isolated in 82% yield. Scale-up was performed on a 20 g scale with a water-wet cake of Form C to yield Form A in 92% yield. […] Slurrying dry Form C in isopropyl alcohol using a similar method also yielded Form A.

[8] = Thermal stability (60° C.); conditions: for polymorph Form changes by XRPD: held at 60° C. for 10 days
Method: (§1) Forms A, B, C, D, and E were held at 60° C. for 10 days followed by analysis by XRPD. In each case, 8 mL vials were charged with approximately 20 mg of material, with the exception of Form B for which 10 mg of material was charged. Samples equilibrated in an oven for 10 days.

[9] = 1 week
Method: as §1

[10] = test system: B6.Sle1z.Sle3z model; conditions: cited from earlier work
[11] = PBS at pH 7.4, 37° C., 24 hours, 5 μM; cited from earlier work
[12] = test system: leukemic cells from early passage p190 transduced cultures; conditions: at about 70 mg/kg twice daily; cited from earlier work

C[C@H](Nc1ncnc2[nH]cnc12)c1cc2cccc(Cl)c2c(=O)n1-c1ccccc1 [Form A, (S)-3-(1-(9H-purin-6-ylamino)ethyl)-8-chloro-2-phenylisoquinolin-1(2H)-one]
Moisture Sorption (wt % water) ([1]; 60% RH): 60% RH: 0.7 wt % water | Moisture Sorption (wt % water) ([1]; 90% RH): 90% RH: 2.6 wt % water | DVS ([1]; @ 60% RH): 0.7% @ 60% RH | DVS ([1]; @ 90% RH): 2.6% @ 90% RH | hygroscopicity [1]: slightly hygroscopic | moisture uptake at 60% RH ([1]; 60% RH): 0.7 wt % | moisture uptake at 90% RH ([1]; 90% RH): 2.6 wt % | changes in Form [2]: no changes in Form | Form by XRPD after grinding ([3]; after both 2 and 5 minutes of grinding by hand): remain consistent | Grinding (mortar & pestle) [3]: remained Form | Solubility (mg/mL) ([4]; H2O): 0.030 (H2O) mg/mL | Solubility (mg/mL) ([4]; SGF): 21.800 (SGF) mg/mL | Solubility in water [5]: 0.03 mg/mL | instability of the polymorphic Form [6]: no indication of instability of the polymorphic Form | degradation in chemical or chiral purity [7]: no degradation in chemical or chiral purity | Thermal stability (60° C.) ([8]; 60° C., after 1 week): stable after 1 | polymorph Form changes by XRPD [8]: No polymorph Form changes were observed

C[C@H](Nc1ncnc2[nH]cnc12)c1cc2cccc(Cl)c2c(=O)n1-c1ccccc1 [Form E, (S)-3-(1-(9H-purin-6-ylamino)ethyl)-8-chloro-2-phenylisoquinolin-1(2H)-one]
DVS ([1]; @ 60% RH): 1.9% @ 60% RH | DVS ([1]; @ 90% RH): 2.2% @ 90% RH | hygroscopicity [1]: slightly hygroscopic | moisture uptake at 60% RH ([1]; 60% RH): 1.9 wt % | moisture uptake at 90% RH ([1]; 90% RH): 2.2 wt % | Grinding (mortar & pestle) [3]: amorphous | Thermal stability (60° C.) [9]: stable after 1 | polymorph Form changes by XRPD [8]: No polymorph Form changes were observed

CO[C@H]1C[C@@H]2CC[C@@H](C)[C@@](O)(O2)C(=O)C(=O)N2CCCC[C@H]2C(=O)O[C@H]([C@H](C)C[C@@H]2CC[C@@H](OCCO)[C@H](OC)C2)CC(=O)[C@H](C)/C=C(\C)[C@@H](O)[C@@H](OC)C(=O)[C@H](C)C[C@H](C)/C=C/C=C/C=C/1C [RAD001]
lupus symptoms [10]: ameliorate lupus symptoms

O=C(O)CCCc1ccc(N(CCCl)CCCl)cc1 [chlorambucil]
chemical stability [11]: largely hydrolyzed

Cc1ccc(NC(=O)c2ccc(CN3CCN(C)CC3)cc2)cc1Nc1nccc(-c2cccnc2)n1 [imatinib]
leukemogenesis [12]: delay but not cure leukemogenesis
